According to patent US20190255091A1, “RNAi AGENTS FOR [sequence] B VIRUS INFECTION” (priority 2016, published 2019):
Several values for one entry are separate records, joined by “and”; a condition that tells them apart may be missing. Equal values may be shown once.

How the values were obtained:
Format in all cases: in vivo
Hepatitis B Virus (HBV) [1] = test: Serum HBV DNA levels in pHBV model mice (qPCR); conditions: 0.8 mg/kg, injection on day 1 and day 22, Example 16
Excerpt: (§1) Six to eight-week-old female NOD.CB17-Prkdscid/NcrCrl (NOD-SCID) mice were transiently transfected in vivo with MC-HBV1.3 by hydrodynamic tail vein injection (Yang P L et al. “Hydrodynamic injection of viral DNA: a mouse model of acute hepatitis B virus infection,” PNAS USA 2002 Vol. 99: p. 13825-13830), administered 30 to 45 days prior to administration of an HBV RNAi agent or control. MC-HBV1.3 is a plasmid-derived minicircle that contains the same terminally redundant human hepatitis B virus sequence HBV1.3 as in plasmid pHBV1.3 and in the HBV1.3.32 transgenic mice (GenBank accession #V01460) (Guidotti L G et al., “High-level hepatitis B virus replication in transgenic mice,” J Virol 1995 Vol. 69, p 6158-6169.). 5 or 10 μg MC-HBV1.3 in Ringer's Solution in a total volume of 10% of the animal's body weight was injected into mice via tail vein to create pHBV model of chronic HBV infection. The solution was injected through a 27-gauge needle in 5-7 seconds as previously described (Zhang G et al., “High levels of foreign gene expression in hepatocytes after tail vein injection of naked plasmid DNA.” Human Gene Therapy 1999 Vol. 10, p 1735-1737.). At pre-dose (either day 1 pre-dose, day −1, or day −2), Hepatitis B surface antigen (HBsAg) HBsAg expression levels in serum were measured by ELISA and the mice were grouped according to average HBsAg expression levels.
(§2) HBV expression levels were normalized to pre-administration expression levels and to control mice injected with phosphate buffered saline (“PBS”).
Equal volumes of serum from mice in a group or subgroup were pooled to a final volume of 100 μL. DNA was isolated from serum samples using the QIAamp MinElute Virus Spin Kit (Qiagen, Valencia, Calif.) following the manufacturer's instructions. Sterile 0.9% saline was added to each sample to a final volume of 200 μL. Serum samples were added to tubes containing buffer and protease. Carrier RNA was added to aid in the isolation of small amounts of DNA. […] After incubating 15 min at 56° C., nucleic acids were precipitated from the lysates with ethanol and the entire solution applied to a column. After washing, the samples were eluted into a volume of 50 μL Buffer AVE.
The number of copies of HBV genomes in DNA isolated from the pHBV mouse model serum was determined by qPCR. Plasmid pSEAP-HBV353-777, encoding a short segment of the HBV genome within the S gene (bases 353-777 of GenBank accession #V01460), was used to create a six log standard curve. Samples with recovery of DNA below 2 standard deviations from the average, based on detection of pHCR/UbC-SEAP were omitted. TaqMan chemistry-based primers and probes with fluor/ZEN/IBFQ are utilized.
qPCR assays were performed on a 7500 Fast or StepOne Plus Real-Time PCR system (Life Technologies). For evaluation of HBV DNA in serum, DNA was isolated from singlet or duplicate purification steps from pooled group serum samples. Quantitations of HBV DNA and recovery control plasmid were determined by qPCR reactions performed in triplicate. The probes to quantitate HBV and pHCR/UbC-SEAP were included in each reaction.

Hepatitis B Virus (HBV) [2] = test: Serum HBsAg levels in pHBV model mice (ELISA); parameters: key to Average HBsAg levels normalized to pre-treatment (day −1) and PBS control / Average HBsAg levels normalized to pre-treatment and PBS control: fraction of pre-treatment level, relative to PBS control mean; conditions: for Average HBsAg normalized to pre-treatment and PBS control: 2.0 mg/kg, single s.c. injection on day 1
Excerpt: as §1, §2
Mice were anesthetized with 2-3% isoflurane and blood samples were collected from the submandibular area into serum separation tubes (Sarstedt AG & Co., Nümbrecht, Germany). Blood was allowed to coagulate at ambient temperature for 20 min. The tubes were centrifuged at 8,000×g for 3 min to separate the serum and stored at 4° C.
Serum was collected and diluted 10 to 8000-fold in PBS containing 5% nonfat dry milk. […] HBsAg levels were determined with a GS HBsAg EIA 3.0 kit (Bio-Rad Laboratories, Inc., Redmond, Wash.) as described by the manufacturer. Recombinant HBsAg protein, ayw subtype, also diluted in nonfat milk in PBS, was used as a primary standard (Aldevron).
HBsAg expression for each animal was normalized to the control group of mice injected with PBS in order to account for the non-treatment related decline in expression of MC-HBV1.3. First, the HBsAg level for each animal at a time point was divided by the pre-treatment level of expression in that animal in order to determine the ratio of expression “normalized to pre-treatment”. Expression at a specific time point was then normalized to the control group by dividing the “normalized to pre-treatment” ratio for an individual animal by the average “normalized to pre-treatment” ratio of all mice in the normal PBS control group.

Hepatitis B Virus (HBV) [3] = test: Serum HBeAg levels in pHBV model mice (ELISA); conditions: 0.8 mg/kg, injection on day 1 and day 22, Example 16
Excerpt: as §1, §2
HBeAg analysis was performed with the HBeAg enzyme linked immunosorbent assay (ELISA) as described by the manufacturer (DiaSorin) using serum diluted 4- to 20-fold in 5% nonfat dry milk. The amount of antigen was determined in the linear range of the assay and quantitated against HBeAg protein standards (Fitzgerald Industries International, catalog #30-AH18, Acton, Mass.).
HBeAg expression for each animal was normalized to the control group of mice injected with PBS in order to account for the non-treatment related decline in expression of MC-HBV1.3. For evaluation of HBeAg in serum, HBeAg is analyzed from pooled group or subgroup serum samples. First, the HBeAg level for each pooled group or subgroup was divided by the pre-treatment level of expression in the same group or subgroup in order to determine the ratio of expression “normalized to pre-treatment”. Expression at a specific time point was then normalized to the control group by dividing the “normalized to pre-treatment” ratio for a group or subgroup by the average “normalized to pre-treatment” ratio of all samples from the normal PBS control group.

HBV genotype C [4] = test: Serum HBV DNA levels in HBV-infected humanized FRG model mice
Excerpt: (§3) For this study, Male FRG® (genotype Fah−/−/Rag2−/−/Il2rg−/− triple knockout mice on a C57BL/6 background (Yecuris) were transplanted with human hepatocytes when they were 1-2 months old. The human hepatocytes were allowed to repopulate the liver for approximately 6 months with periodic NTBC treatment to discourage growth of mouse hepatocytes. At 9 months of age the mice were given an intravenous inoculation of 4×10^8 genomes/kg HBV genotype C, which infected the human hepatocytes. After 2-3 months, serum HBV DNA levels reached a plateau indicating the human hepatocytes were maximally infected (mouse hepatocytes cannot be infected by HBV). Mice were one year old at the start of treatment with HBV RNAi agents, thus nearing the end of their life span.
(§4) Pre-treatment serum samples were taken on day −10 and day −3. Beginning on day 1, each mouse was administered an oral daily gavage with 0.01 mg/kg Entecavir dissolved in water to inhibit HBV replication. Daily dosing of Entecavir continued until the day mice were euthanized. Entecavir administration was expected to reduce serum HBV DNA in chronically infected human patients, but not reduce HBsAg.
(§5) Each mouse was also given a subcutaneous administration of 100 μl per 20 grams body weight containing the amount of HBV RNAi agent(s) formulated in phosphate buffered saline, or an equal volume of phosphate buffered saline without an HBV RNAi agent, on day 1 and on day 29 (if still alive on day 29), pursuant to the schedule as set forth in Table 47, directly above. […] The injections were performed between the skin and muscle (i.e. subcutaneous injections) into the loose skin over the neck and shoulder area.
Additionally, serum HBV DNA levels were determined from serum samples collected on days −10, −3, 8, 15, 22, 29, 36, and 40, pursuant to the procedure set forth in Example 2, above.

HBV genotype C [5] = test: Serum HBsAg levels in HBV-infected humanized FRG model mice; conditions: Group A: daily oral 0.01 mg/kg Entecavir, PBS (no RNAi agent), individual mouse
Excerpt: as §3, §4, §5
Serum was collected on day 8, day 15, day 22, day 29, day 36, and day 40 and serum Hepatitis B surface antigen (HBsAg) levels were determined pursuant to the procedure set forth in Example 2, above.

AD05070: HBV RNAi agent duplex AM06606-AS/AM06605-SS (antisense UACCAAUUUAUGCCUACAGCG; sense CGCUGUAGGCAUAAAUUGGUA; chemistry not fully specified)
Average Serum HBV DNA levels normalized to pre-treatment and PBS control (Hepatitis B Virus (HBV) [1]; Day 8): 1.124 ± 0.142
Average Serum HBV DNA levels normalized to pre-treatment and PBS control (Hepatitis B Virus (HBV) [1]; Day 15): 0.742 ± 0.127
Average Serum HBV DNA levels normalized to pre-treatment and PBS control (Hepatitis B Virus (HBV) [1]; Day 22): 0.807 ± 0.192
Average HBsAg levels normalized to pre-treatment and PBS control (Hepatitis B Virus (HBV) [2]; Day 8, 0.8 mg/kg, injection on day 1 and day 22, Example 16): 0.446 ± 0.143
Average HBsAg levels normalized to pre-treatment and PBS control (Hepatitis B Virus (HBV) [2]; Day 8, 0.8 mg/kg, single s.c. injection day 1, Example 8): 0.355 ± 0.099 and 0.271 ± 0.058
Average HBsAg normalized to pre-treatment and PBS control (Hepatitis B Virus (HBV) [2]; Day 8, Example 15): 0.081 ± 0.026
Average HBsAg levels normalized to pre-treatment and PBS control (Hepatitis B Virus (HBV) [2]; Day 14, 0.8 mg/kg, single s.c. injection day 1, Example 8): 0.366 ± 0.069 and 0.334 ± 0.060
Average HBsAg levels normalized to pre-treatment and PBS control (Hepatitis B Virus (HBV) [2]; Day 14, 4.0 mg/kg, single s.c. injection day 1, Example 8): 0.069 ± 0.039 and 0.079 ± 0.047
Average HBsAg levels normalized to pre-treatment and PBS control (Hepatitis B Virus (HBV) [2]; Day 15, 0.8 mg/kg, injection on day 1 and day 22, Example 16): 0.376 ± 0.120
Average HBsAg normalized to pre-treatment and PBS control (Hepatitis B Virus (HBV) [2]; Day 15, Example 15): 0.127 ± 0.031
Average HBsAg levels normalized to pre-treatment and PBS control (Hepatitis B Virus (HBV) [2]; Day 21, 0.8 mg/kg, single s.c. injection day 1, Example 8): 0.464 ± 0.055
Average HBsAg levels normalized to pre-treatment and PBS control (Hepatitis B Virus (HBV) [2]; Day 21, 4.0 mg/kg, single s.c. injection day 1, Example 8): 0.145 ± 0.082
Average HBsAg levels normalized to pre-treatment and PBS control (Hepatitis B Virus (HBV) [2]; Day 22, 0.8 mg/kg, injection on day 1 and day 22, Example 16): 0.474 ± 0.149
Average HBsAg normalized to pre-treatment and PBS control (Hepatitis B Virus (HBV) [2]; Day 22, Example 15): 0.223 ± 0.057
Average HBsAg levels normalized to pre-treatment and PBS control (Hepatitis B Virus (HBV) [2]; Day 28, 0.8 mg/kg, single s.c. injection day 1, Example 8): 0.624 ± 0.053
Average HBsAg levels normalized to pre-treatment and PBS control (Hepatitis B Virus (HBV) [2]; Day 28, 4.0 mg/kg, single s.c. injection day 1, Example 8): 0.135 ± 0.061
Average HBsAg levels normalized to pre-treatment and PBS control (Hepatitis B Virus (HBV) [2]; Day 29, 0.8 mg/kg, injection on day 1 and day 22, Example 16): 0.338 ± 0.123
Average HBsAg normalized to pre-treatment and PBS control (Hepatitis B Virus (HBV) [2]; Day 29, Example 15): 0.330 ± 0.112
Average HBsAg normalized to pre-treatment and PBS control (Hepatitis B Virus (HBV) [2]; Day 36, Example 15): 0.472 ± 0.121
Average HBsAg normalized to pre-treatment and PBS control (Hepatitis B Virus (HBV) [2]; Day 43, Example 15): 0.515 ± 0.126
Average HBsAg normalized to pre-treatment and PBS control (Hepatitis B Virus (HBV) [2]; Day 50, Example 15): 0.689 ± 0.167
knockdown of HBsAg compared to PBS control (Hepatitis B Virus (HBV) [2]; Example 15, administered alone or in combination with AD04872, across each of the time points measured): significant knockdown of HBsAg
Average HBeAg levels normalized to pre-treatment and PBS control (Hepatitis B Virus (HBV) [3]; Day 8): 0.634
Average HBeAg levels normalized to pre-treatment and PBS control (Hepatitis B Virus (HBV) [3]; Day 15): 0.594 ± 0.082
Average HBeAg levels normalized to pre-treatment and PBS control (Hepatitis B Virus (HBV) [3]; Day 22): 0.840 ± 0.152
Average HBeAg levels normalized to pre-treatment and PBS control (Hepatitis B Virus (HBV) [3]; Day 29): 0.271 ± 0.029

C=C1[C@H](CO)[C@@H](O)C[C@@H]1n1cnc2c(=O)[nH]c(N)nc21 [Entecavir]
viral replication (serum HBV DNA) (HBV genotype C [4]; Example 18, 0.01 mg/kg oral daily gavage, absence and presence of HBV RNAi agents): reduced viral replication
Serum HBV DNA levels normalized to the average of pre-treatment day −10 and day −3, Day 8 (HBV genotype C [4]; Group A: daily oral 0.01 mg/kg Entecavir, PBS (no RNAi agent), individual mouse, Day 8): 0.072 and 0.130
Serum HBV DNA levels normalized to the average of pre-treatment day −10 and day −3, Day 15 (HBV genotype C [4]; Group A: daily oral 0.01 mg/kg Entecavir, PBS (no RNAi agent), individual mouse, Day 15): 0.038 and 0.075
Serum HBV DNA levels normalized to the average of pre-treatment day −10 and day −3, Day 22 (HBV genotype C [4]; Group A: daily oral 0.01 mg/kg Entecavir, PBS (no RNAi agent), individual mouse, Day 22): 0.015
Serum HBV DNA levels normalized to the average of pre-treatment day −10 and day −3, Day 29 (HBV genotype C [4]; Group A: daily oral 0.01 mg/kg Entecavir, PBS (no RNAi agent), individual mouse, Day 29): 0.027
Serum HBV DNA levels normalized to the average of pre-treatment day −10 and day −3, Day 36 (HBV genotype C [4]; Group A: daily oral 0.01 mg/kg Entecavir, PBS (no RNAi agent), individual mouse, Day 36): 0.060
HBsAg levels normalized to pre-treatment (day −3), Day 8 (HBV genotype C [5]; Day 8): 0.830 and 1.303
HBsAg levels normalized to pre-treatment (day −3), Day 15 (HBV genotype C [5]; Day 15): 0.828 and 1.328
HBsAg levels normalized to pre-treatment (day −3), Day 22 (HBV genotype C [5]; Day 22): 0.932
HBsAg levels normalized to pre-treatment (day −3), Day 29 (HBV genotype C [5]; Day 29): 0.858
HBsAg levels normalized to pre-treatment (day −3), Day 36 (HBV genotype C [5]; Day 36): 1.107
